Key:
Format in all cases: functional
Rattus norvegicus [1] = assay: Anti-inflammatory activity in Rattus norvegicus Wistar (rat) assessed as inhibition of carrageenan-induced paw edema at 20 mg/kg administered 30 min prior to carrageenan challenge measured after 0.5 hr by plethysmographic analysis relative to untreated control
Rattus norvegicus [2] = assay: Anti-inflammatory activity in Rattus norvegicus Wistar (rat) assessed as inhibition of carrageenan-induced paw edema at 20 mg/kg administered 30 min prior to carrageenan challenge measured after 2 hr by plethysmographic analysis relative to untreated control
Rattus norvegicus [3] = assay: Anti-inflammatory activity in Rattus norvegicus Wistar (rat) assessed as inhibition of carrageenan-induced paw edema at 20 mg/kg administered 30 min prior to carrageenan challenge measured after 1 hr by plethysmographic analysis relative to untreated control
Rattus norvegicus [4] = species on record: Rattus norvegicus; assay: Analgesic activity in Rattus norvegicus Wistar (rat) assessed as tail flick latency time after 90 min by tail immersion test (reference value: 3.25 +/- 0.005 secs)
Rattus norvegicus [5] = species on record: Rattus norvegicus; assay: Analgesic activity in Rattus norvegicus Wistar (rat) assessed as tail flick latency time after 30 min by tail immersion test (reference value: 3.23 +/- 0.005 secs)
Rattus norvegicus [6] = species on record: Rattus norvegicus; assay: Analgesic activity in Rattus norvegicus Wistar (rat) assessed as tail flick latency time after 60 min by tail immersion test (reference value: 3.34 +/- 0.005 secs)
Rattus norvegicus [7] = assay: Anti-inflammatory activity in Rattus norvegicus Wistar (rat) assessed as inhibition of carrageenan-induced paw edema at 20 mg/kg administered 30 min prior to carrageenan challenge measured after 3 hr by plethysmographic analysis relative to untreated control

SMILES	inhibition in vivo at 20 mg/kg (Rattus norvegicus [1])	inhibition in vivo at 20 mg/kg (Rattus norvegicus [2])	inhibition in vivo at 20 mg/kg (Rattus norvegicus [3])	Time (Rattus norvegicus [4])	Time (Rattus norvegicus [5])	Time (Rattus norvegicus [6])	inhibition in vivo at 20 mg/kg (Rattus norvegicus [7])
CCOC(=O)C1=C(C)NC(C)=C(C(=O)OCC)C1c1ccc(OCC(=O)Nc2ccc(C)cc2)cc1	43.9%	62.2%	–	–	–	–	–
CCOC(=O)C1=C(C)NC(C)=C(C(=O)OCC)C1c1ccc(OCC(=O)NCc2ccccc2)cc1	–	8.9%	16.1%	–	–	–	–
CCOC(=O)C1=C(C)NC(C)=C(C(=O)OCC)C1c1ccc(OCc2nnc(S)o2)cc1	42.4%	61.7%	–	6.97 s	4.97 s	6.07 s	–
CCOC(=O)C1=C(C)NC(C)=C(C(=O)OCC)C1c1ccc(OCC(=O)NNC(=O)CCC(=O)O)cc1	–	–	–	6.87 s	4.96 s	6.07 s	–
O=C(O)Cc1ccccc1Nc1c(Cl)cccc1Cl [DICLOFENAC SODIUM]	16.7%	61.1%	41%	–	–	–	65.3%
CCOC(=O)C1=C(C)NC(C)=C(C(=O)OCC)C1c1ccc(OCC(=O)NNC(=O)c2ccccc2)cc1	9.1%	44.5%	–	6.37 s	4.62 s	5.87 s	–
CCOC(=O)C1=C(C)NC(C)=C(C(=O)OCC)C1c1ccc(OCC(=O)Nc2c(C)cccc2C)cc1	15.9%	47.8%	–	–	–	–	–
CCOC(=O)C1=C(C)NC(C)=C(C(=O)OCC)C1c1ccc(OCC(=O)n2nc(C)cc2C)cc1	13.7%	–	–	6.78 s	4.76 s	5.93 s	–
CCOC(=O)C1=C(C)NC(C)=C(C(=O)OCC)C1c1ccc(OCC(=O)NNC(=O)c2cccs2)cc1	44%	62.2%	–	7.02 s	–	6.23 s	–
CCOC(=O)C1=C(C)NC(C)=C(C(=O)OCC)C1c1ccc(OCC(=O)Nc2nc3ccccc3s2)cc1	47.7%	64.5%	–	–	5.28 s	6.03 s	–
CCOC(=O)C1=C(C)NC(C)=C(C(=O)OCC)C1c1ccc(OCC(=O)NNC(=O)c2sccc2Cl)cc1	–	57.2%	–	6.45 s	4.34 s	5.67 s	–
CCOC(=O)C1=C(C)NC(C)=C(C(=O)OCC)C1c1ccc(OCC(=O)NN2C(=O)c3ccccc3C2=O)cc1	–	–	–	7.21 s	5.03 s	6.16 s	–
CCOC(=O)C1=C(C)NC(C)=C(C(=O)OCC)C1c1ccc(OCC(=O)NNC(=O)c2ccsc2Cl)cc1	12.9%	–	–	6.46 s	4.85 s	5.74 s	–
O=C([O-])Cc1ccccc1Nc1c(Cl)cccc1Cl.[K+] [DICLOFENAC POTASSIUM]	–	–	–	7.45 s	6.25 s	6.95 s	–

Reference: ChEMBL document CHEMBL3046902, “New dihydropyridine derivatives: anti-inflammatory, analgesic and docking studies” (2013)
